The values that follow come from PMC9736374, “Design, Synthesis and Antimicrobial Properties of New Tetracyclic Quinobenzothiazine Derivatives” (International Journal of Molecular Sciences, 2022).

The subject of series [1] is methicillin-resistant S. aureus 63718 (MRSA3). The series is described as follows: MIC, microtitration broth method. In kind it is cell-based. The note with it: Staphylococcus aureus; MRSA3 = 63718; 24 h, 37 °C.
Series [2] deals with Staphylococcus aureus ATCC 29213. Put plainly: MIC, microtitration broth method. As to conditions: ATCC29213; SA = Staphylococcus aureus ATCC 29213; 24 h, 37 °C. It counts as cell-based.
In series [3] the test system is vancomycin-resistant E. faecalis VRE 725B (VRE3). Put plainly: MBC, agar aliquot subculture method. The note with it: VRE3 = VRE 725B. It counts as cell-based, Enterococcus faecalis.
Series [4] relates to Enterococcus faecalis ATCC 29212. The series is described as follows: MBC, agar aliquot subculture method. In kind it is cell-based. As to conditions: ATCC29212; EF = Enterococcus faecalis.
Series [5] deals with methicillin-resistant S. aureus SA 3202 (MRSA1). The series is described as follows: MIC, microtitration broth method. In kind it is cell-based. The note with it: Staphylococcus aureus; MRSA1 = SA 3202; 24 h, 37 °C.
In series [6] the test system is M. smegmatis ATCC 700084. Put plainly: In vitro antimycobacterial MIC, broth dilution micro-method. In kind it is cell-based, Mycobacterium smegmatis. As to conditions: Mycolicibacterium smegmatis, ATCC700084, 72 h; MS = M. smegmatis ATCC 700084; 3 days, 37 °C. (In general: Broth dilution looks for growth in wells or tubes with falling amounts of substance.)
Series [7] in a line: Lipophilicity by RP-TLC. In kind it is physicochemical. As to conditions: Tris buffer pH 7.4/acetone, read-out: logPTLC. How it is done: The lipophilicity parameters were determined experimentally using reverse phase thin-layer chromatography (RP-TLC). Chromatograms were prepared on RP-18F254s plates (1.05559.0001, Merck, Germany) precoated with nonpolar silicone oil. Plates were developed in glass chromatography chambers previously saturated with vapor of mobile phase. The mobile phase was composed of 0.2M Tris buffer (pH = 7.4) and acetone in different concentrations, i.e., 50%, 60%, 70%, 80 and 90%. The chromatograms were visualised in UV light (λ = 254 nm). Determination of the RF coefficient was carried out twice for all compounds; in all cases, acetone concentrations used. The final value of RF is the mean of the two measurements. The obtained RF coefficient was used to calculate the value of the RM parameter according to the equation: RM = log [(1/RF) − 1]. By extrapolating RM values to zero acetone concentration, a relative RM0 lipophilicity parameter was obtained, according to the equation: RM = RM0 + bC, where b is slope and C is concentration of acetone in mobile phase. Based on RM0 and the calibration curve, the values of logPTLC for compounds 6a–l were determined. The calibration curve was calculated using the relationship between RM0 of the standard molecules (acetanilide, p-kresol, p-bromoacetophenone, benzophenone, anthracene) and the corresponding logP parameters specified by the extraction method, respectively. RM0 parameters of the standard molecules and quinobenzothiazine derivatives 6a–l were determined in the same empirical conditions.

Series [8] concerns Staphylococcus aureus ATCC 29213. The series is described as follows: MBC, agar aliquot subculture method. It counts as cell-based. As to conditions: ATCC29213; SA = Staphylococcus aureus ATCC 29213.
Series [9] has as its system normal human dermal fibroblasts (NHDF). Put plainly: In vitro cell viability, WST-1 assay. It counts as cell-based. As to conditions: 72 h. How it is done: Compounds were evaluated for their antiproliferative activity using NHDF (normal human dermal fibroblasts, ATCC, Manassas, VA, USA). The cultured cells were kept at 37 °C and 5% CO2. The cells were seeded (1 × 10^4 cells/well/100 μL DMEM supplemented with 10% FCS and streptomycin/penicillin) into 96-well plates (Corning Inc., Corning, NY, USA). Cells were counted using a hemocytometer (Burker chamber) and phase contrast Olympus IX50 microscope equipped with Sony SSC-DC58 AP camera and Olympus DP10 digital camera. The cell viability of the compounds was determined using the Cell Proliferation Reagent WST-1 assay (Roche Molecular Biochemicals, Mannheim, Germany). The examined cells were exposed to the tested compounds (1 mg/mL DMSO stock) for 72 h at various concentrations (0.1–100 μg/mL). The control was included in order to eliminate the DMSO effect at the concentration used. Cell cultures were incubated with WST-1 (10 μL) for 1 h. The absorbance of the samples was measured against a background control at 450 nm using a microplate reader with a reference wavelength at 600 nm. The obtained results are expressed as means of at least two independent experiments performed in triplicate.
On the technique in general: Tetrazolium dyes change colour on reduction, which living cells bring about.

Series [10] has as its system vancomycin-resistant E. faecalis VRE 368 (VRE2). The series is described as follows: MIC, microtitration broth method. In kind it is cell-based, Enterococcus faecalis. As to conditions: VRE2 = VRE 368; 24 h, 37 °C.
Series [11] shares this test system. The series is described as follows: MBC, agar aliquot subculture method. In kind it is cell-based, Enterococcus faecalis. The note with it: VRE2 = VRE 368.
The test system of series [12] is methicillin-resistant S. aureus SA 630 (MRSA2). Put plainly: MIC, microtitration broth method. As to conditions: Staphylococcus aureus; MRSA2 = SA 630; 24 h, 37 °C. In kind it is cell-based.
Series [13] has as its system methicillin-resistant S. aureus 63718 (MRSA3). The series is described as follows: MBC, agar aliquot subculture method. It counts as cell-based. As to conditions: Staphylococcus aureus; MRSA3 = 63718.
Series [14] concerns methicillin-resistant S. aureus SA 630 (MRSA2). The series is described as follows: MBC, agar aliquot subculture method. In kind it is cell-based. The note with it: Staphylococcus aureus; MRSA2 = SA 630.
Series [15] deals with vancomycin-resistant E. faecalis VRE 342B (VRE1). The series is described as follows: MIC, microtitration broth method. In kind it is cell-based, Enterococcus faecalis. As to conditions: VRE1 = VRE 342B; 24 h, 37 °C.
Series [16] deals with Enterococcus faecalis ATCC 29212. Put plainly: MIC, microtitration broth method. As to conditions: ATCC29212; EF = Enterococcus faecalis; 24 h, 37 °C. In kind it is cell-based.
The test system of series [17] is vancomycin-resistant E. faecalis VRE 342B (VRE1). The series is described as follows: MBC, agar aliquot subculture method. In kind it is cell-based, Enterococcus faecalis. As to conditions: VRE1 = VRE 342B.
Series [18] deals with Mycobacterium marinum CAMP 5644. Put plainly: In vitro antimycobacterial MIC, broth dilution micro-method. In kind it is cell-based. The note with it: CAMP5644, 504 h; MM = Mycobacterium marinum CAMP 5644; 21 days, 28 °C.
Series [19] has as its system methicillin-resistant S. aureus SA 3202 (MRSA1). The series is described as follows: MBC, agar aliquot subculture method. As to conditions: Staphylococcus aureus; MRSA1 = SA 3202. It counts as cell-based.
Series [20] concerns vancomycin-resistant E. faecalis VRE 725B (VRE3). Put plainly: MIC, microtitration broth method. It counts as cell-based, Enterococcus faecalis. As to conditions: VRE3 = VRE 725B; 24 h, 37 °C.
Series [21] concerns S. aureus ATCC 29213 respiratory activity. Put plainly: MTT assay of bacterial respiration. In kind it is cell-based, Staphylococcus aureus. The note with it: at the concentration given.
The test system of series [22] is S. aureus. The series is described as follows: Crystal violet uptake (membrane permeability). In kind it is cell-based, Staphylococcus aureus. As to conditions: 4× MIC, 1 h; compared to growth control and 1% Tween 20. How it is done: Phenothiazines are also known for their ability to interact with and damage the cell wall, which has fatal consequences for the microorganism. Therefore, the bacterial suspensions were treated by compounds 6a, 6e, 6g, 6j and 6k (4× MIC) for 1 h. The uptake of crystal violet was expressed as a percentage compared to the original crystal violet solution.

In the case of `CCCOc1ccc2c(c1)Nc1c(c[n+](C)c3ccccc13)S2` [Compound 6b, 10-propoxy-5-methyl-12H-quino[3,4-b][1,4]benzothiazinium chloride], the MIC was 22.3 µM in [1]; 22.3 µM in series [2]; 44.6 µM in series [5]; 22.3 µM in [6]; 178 µM in series [10]; 44.6 µM in series [12]. In addition, the MIC amounted to 178 µM in series [15], 89.1 µM in series [16], 22.3 µM in series [18] and 89.1 µM in series [20]. Besides, the MBC in [3] worked out at 89.1 µM; in series [4] it was 89.1 µM; in series [8], 44.6 µM; in [11], 178 µM; in series [13], 22.3 µM; in series [14] it was 44.6 µM. Further, the MBC in series [17] was 178 µM; in series [19] it was 44.6 µM. Moreover, the chromatographic logP in [7] turned out to be 1.99. The IC50 in series [9] amounted to 65.5 µM.

On to `C[n+]1cc2c(c3ccccc31)Nc1ccc(OCc3ccccc3)cc1S2` [Compound 6j, 9-benzyloxy-5-methyl-12H-quino[3,4-b][1,4]benzothiazinium chloride], for which the MIC in [1] amounted to 2.46 µM; in series [2], 9.83 µM; in series [5], 4.91 µM; in [6], 9.83 µM; in series [10] it was 78.6 µM; in series [12], 9.83 µM. Moreover, the MIC in series [15] is 19.7 µM; in [16] it was 19.7 µM; in [18] it was 2.5 µM; in series [20] it was 39.3 µM. For the same compound, the MBC in series [3] worked out at 39.3 µM; in [4] it was 39.3 µM; in [8] it was 9.83 µM; in series [11], 78.6 µM; in [13], 2.46 µM; in series [14], 9.83 µM. In addition, the MBC in [17] is 19.7 µM; in [19], 9.83 µM. For the same compound, the “S. aureus Respiration Inhibition” value in series [21] is listed as 91.3%. In addition, the “Effect on plasma membrane permeability (uptake of crystal violet)” value in series [22] is recorded as “did not affect plasma membrane permeability”. Further, in series [7], the chromatographic logP is 3.41. Besides, in series [9], the IC50 came to 37.7 µM.

Regarding `C=CCOc1ccc2c(c1)Sc1c[n+](C)c3ccccc3c1N2` [Compound 6d, 9-allyloxy-5-methyl-12H-quino[3,4-b][1,4]benzothiazinium chloride], the MIC in series [1] is 44.8 µM; in [2], 44.8 µM; in [5], 44.8 µM; in series [6], 22.4 µM; in series [10] it was 44.8 µM; in series [12], 89.6 µM. Moreover, the MIC was 44.8 µM in series [15], 44.8 µM in series [16], 11.2 µM in series [18] and 22.4 µM in [20]. Moreover, the MBC came out at 44.8 µM in [3]; 44.8 µM in series [4]; 44.8 µM in [8]; 44.8 µM in [11]; 44.8 µM in [13]; 89.6 µM in series [14]. In addition, the MBC in series [17] and in [19] was 44.8 µM in each case. The chromatographic logP in series [7] is 2.98. This compound registered an IC50 in series [9] above 100 µM.

On to `C=CCOc1cccc2c1Nc1c(c[n+](C)c3ccccc13)S2` [Compound 6f, 11-allyloxy-5-methyl-12H-quino[3,4-b][1,4]benzothiazinium chloride], for which the MIC in series [1] came out at 179 µM; in [2], 359 µM; in [5], 359 µM; in series [6] it was 89.6 µM; in [10], 359 µM; in series [12], 359 µM. For the same compound, the MIC in series [15] worked out at 359 µM; in [16], 179 µM; in series [18] it was 44.8 µM; in series [20] it was 179 µM. Also, the minimal bactericidal concentration (MBC) stood at 179 µM in series [3]; 359 µM in [4]; 359 µM in series [8]; 359 µM in series [11]; 359 µM in [13]; 359 µM in series [14]. Moreover, the MBC in series [17] and in [19] was 359 µM each time. Besides, the chromatographic logP in [7] came to 2.29. Moreover, the IC50 in series [9] is above 100 µM.

As to `C#CCOc1cccc2c1Nc1c(c[n+](C)c3ccccc13)S2` [Compound 6i, 11-propargyloxy-5-methyl-12H-quino[3,4-b][1,4]benzothiazinium chloride], the minimal inhibitory concentration (MIC) was 180 µM in series [1]; 180 µM in series [2]; 180 µM in series [5]; 90.1 µM in series [6]; 180 µM in series [10]; 361 µM in series [12]. Further, the MIC in series [15] is 180 µM; in series [16], 361 µM; in [18], 45.1 µM; in series [20], 180 µM. Further, the MBC in series [3] came out at 180 µM; in series [4], 361 µM; in [8], 180 µM; in series [11] it was 180 µM; in [13] it was 180 µM; in [14] it was 361 µM. The results for the MBC in series [17] and in series [19] were 180 µM and 361 µM, respectively. Besides, in series [7], the chromatographic logP was 2.2. The concentration for half-maximal inhibition (IC50) in series [9] turned out to be 47.5 µM.

What is called MIC is the lowest concentration that inhibits growth of the organism. Read a high MIC as weaker potency. Broadly, the MBC is the lowest tested concentration that kills the bacteria rather than only halting them. As a reminder, the IC50 is the concentration at which inhibition is half-maximal. High values mean weaker potency in that assay, low ones greater potency in that assay.
